Experimental data taken from PMC10426190 (Breast Cancer Research : BCR, 2023).

System: E2-induced (ER target) genes in MCF7
Assay: Gene expression analysis by RNA-sequencing in MCF7 with E2 stimulation
Type: cell-based, human
Conditions: MCF7; 1 nM E2 ± 1 μM compound, 24 h
Description: MCF7 were cultured in hormone deprivation media (with 10% charcoal-stripped FBS) for at least 3 days before assay. Trypsinized cells were seeded in a 12-well plate, stimulated with 1 nM β-estradiol (E2), and treated with/without 1 μM compounds for 24 h. Total RNA was extracted using the TRIzol reagent according to the manufacturer’s protocol. RNA purity and quantification were evaluated using the NanoDrop 2000 spectrophotometer (Thermo Scientific, USA). RNA integrity was assessed using the Agilent 2100 Bioanalyzer (Agilent Technologies, Santa Clara, CA, USA). Then the libraries were constructed using TruSeq Stranded mRNA LT Sample Prep Kit (Illumina, San Diego, CA, USA) according to the manufacturer’s instructions. The transcriptome sequencing and analysis were conducted by OE Biotech Co., Ltd. (Shanghai, China). The libraries were sequenced on an Illumina HiSeq X Ten platform and 150 bp paired-end reads were generated. […] Raw data (raw reads) of FASTq format were firstly processed using Trimmomatic and the low-quality reads were removed to obtain the clean reads. […] The clean reads were mapped to the human genome (GRCh38) using HISAT2 [27]. FPKM [28] of each gene was calculated using Cufflinks, and the read counts of each gene were obtained by HTSeqcount. Differential expression analysis was performed using the DESeq (2012) R package.
MCF7 with hormone-deprived pre-treatment were administrated ER ligands or not present with 1 nM E2 stimulation for 24 h incubation in a 12-well plate. Total mRNA was isolated from treated cells and sequenced on an Illumina HiSeq X Ten platform. FPKM of each gene was calculated using Cufflinks and Differential expression genes analysis by using the DESeq (2012) R package. […] T47D EFM-19 and HCC1500 cells were grown in RPMI media supplemented with 10% charcoal-stripped FBS for 14 days and then treated with ER antagonist (1 μM) or DMSO in the presence E2 (1nM) stimulation for 24 h before RNA isolation and gene expression analysis as described in methods. […] The uteruses were harvested 24 h after the final doses and stained by toluidine blue. Endometrial height was assessed from the basement membrane to the luminal border (scale bar in green lines: 200 μm), Arrows indicate the uterine epithelium (e).

Structure (SMILES): C[C@]12CC[C@@H]3c4ccc(O)cc4CC[C@H]3[C@@H]1CC[C@@H]2O [E2, β-estradiol]
- ACTG2 expression: 3.78 FPKM
- ADCY1 expression: 29.74 FPKM
- AGR3 expression: 24.59 FPKM
- AMZ1 expression: 3.24 FPKM
- ANLN expression: 47.32 FPKM
- ARHGAP36 expression: 3.84 FPKM
- ASCL1 expression: 5.48 FPKM
- ASF1B expression: 78.22 FPKM
- ASMTL-2 expression: 6.46 FPKM
- ATAD2 expression: 69.95 FPKM
- ATRNL1 expression: 0.42 FPKM
- AURKB expression: 43.03 FPKM
- BIRC5 expression: 50.28 FPKM
- BLM expression: 8.02 FPKM
- BMPER expression: 1.39 FPKM
- BRCA1 expression: 9.45 FPKM
- BRCA2 expression: 5.65 FPKM
- BRIP1 expression: 54.99 FPKM
- BUB1B expression: 18.35 FPKM
- C1orf226 expression: 13.05 FPKM
- C5AR2 expression: 3.18 FPKM
- CA2 expression: 184.51 FPKM
- CA12 expression: 52.56 FPKM
- CALCR expression: 6.65 FPKM
- CAV1 expression: 11.53 FPKM
- CCN5 expression: 50.43 FPKM
- CCNA2 expression: 35.91 FPKM
- CCNE2 expression: 17.15 FPKM
- CD99-2 expression: 8.67 FPKM
- CDC6 expression: 16.34 FPKM
- CDC25A expression: 7.21 FPKM
- CDC45 expression: 22.61 FPKM
- CDCA3 expression: 12.59 FPKM
- CDCA4 expression: 35.30 FPKM
- CDCA5 expression: 32.97 FPKM
- CDCA7 expression: 8.46 FPKM
- CDH26 expression: 1.84 FPKM
- CDK1 expression: 34.56 FPKM
- CDT1 expression: 51.94 FPKM
- CENPI expression: 6.53 FPKM
- CENPU expression: 12.95 FPKM
- CHAF1B expression: 5.21 FPKM
- CHEK1 expression: 5.59 FPKM
- CKS1B expression: 97.65 FPKM
- CLSPN expression: 5.95 FPKM
- COL12A1 expression: 4.88 FPKM
- CXCL12 expression: 18.59 FPKM
- DDIAS expression: 9.79 FPKM
- DHRSX-2 expression: 1.19 FPKM
- DKK1 expression: 65.08 FPKM
- DNA2 expression: 7.03 FPKM
- DPYSL5 expression: 1.59 FPKM
- DSCC1 expression: 15.71 FPKM
- DTL expression: 6.96 FPKM
- E2F1 expression: 27.20 FPKM
- E2F2 expression: 5.64 FPKM
- E2F7 expression: 9.64 FPKM
- E2F8 expression: 10.32 FPKM
- ELOVL2 expression: 16.88 FPKM
- EME1 expression: 10.05 FPKM
- ERCC6L expression: 4.70 FPKM
- ESCO2 expression: 7.26 FPKM
- ESPL1 expression: 17.48 FPKM
- EXO1 expression: 10.16 FPKM
- FAM20A expression: 2.20 FPKM
- FAM111B expression: 12.41 FPKM
- FANCA expression: 22.66 FPKM
- FANCD2 expression: 15.48 FPKM
- FANCI expression: 48.65 FPKM
- FEN1 expression: 69.25 FPKM
- FIGNL1 expression: 5.08 FPKM
- FKBP4 expression: 141.57 FPKM
- GATA4 expression: 0.17 FPKM
- GFRA1 expression: 93.16 FPKM
- GINS1 expression: 23.84 FPKM
- GINS2 expression: 36.18 FPKM
- GJA1 expression: 1.09 FPKM
- GLA expression: 91.41 FPKM
- GP1BB expression: 2.96 FPKM
- GPR68 expression: 2.46 FPKM
- GPRIN1 expression: 8.93 FPKM
- GREB1 expression: 60.67 FPKM
- H2AX expression: 195.62 FPKM
- HBB expression: 2.07 FPKM
- HELLS expression: 7.42 FPKM
- HEY2 expression: 5.27 FPKM
- HMGB2 expression: 247.66 FPKM
- IGFBP4 expression: 131.73 FPKM
- IGSF1 expression: 11.09 FPKM
- ITGA2B expression: 1.22 FPKM
- KIF11 expression: 25.57 FPKM
- KIF18B expression: 9.55 FPKM
- KIFC1 expression: 32.81 FPKM
- KLK11 expression: 14.79 FPKM
- KNL1 expression: 7.74 FPKM
- KNTC1 expression: 15.58 FPKM
- LHX2 expression: 3.63 FPKM
- LIG1 expression: 50.95 FPKM
- LMNB1 expression: 103.66 FPKM
- MAD2L1 expression: 15.82 FPKM
- MCM2 expression: 79.68 FPKM
- MCM3 expression: 73.54 FPKM
- MCM4 expression: 90.54 FPKM
- MCM5 expression: 31.11 FPKM
- MCM6 expression: 49.04 FPKM
- MCM7 expression: 195.09 FPKM
- MCM10 expression: 11.30 FPKM
- MELK expression: 23.52 FPKM
- MKI67 expression: 43.57 FPKM
- MYB expression: 14.56 FPKM
- MYBL1 expression: 7.63 FPKM
- MYBL2 expression: 105.97 FPKM
- NCAPG2 expression: 42.44 FPKM
- NCAPG expression: 16.64 FPKM
- NPY1R expression: 21.66 FPKM
- ORC1 expression: 9.75 FPKM
- ORC6 expression: 17.34 FPKM
- PAQR4 expression: 27.39 FPKM
- PBK expression: 34.81 FPKM
- PCLAF expression: 64.57 FPKM
- PCNA expression: 139.06 FPKM
- PDZK1 expression: 5.01 FPKM
- PGR expression: 8.19 FPKM
- PKIB expression: 60.35 FPKM
- PKMYT1 expression: 41.08 FPKM
- POLA1 expression: 6.08 FPKM
- POLA2 expression: 14.49 FPKM
- POLD1 expression: 24.97 FPKM
- POLE2 expression: 6.15 FPKM
- POLE expression: 25.41 FPKM
- POLQ expression: 6.41 FPKM
- PRIM1 expression: 28.80 FPKM
- PRSS23 expression: 215.68 FPKM
- RAB31 expression: 21.61 FPKM
- RAD51AP1 expression: 13.82 FPKM
- RAD51 expression: 9.69 FPKM
- RAD54L expression: 12.35 FPKM
- RAMP3 expression: 13.53 FPKM
- RAPGEFL1 expression: 7.70 FPKM
- RBL1 expression: 5.83 FPKM
- RECQL4 expression: 32.15 FPKM
- RERG expression: 8.59 FPKM
- RET expression: 10.12 FPKM
- RFC2 expression: 36.71 FPKM
- RFC3 expression: 9.92 FPKM
- RFC4 expression: 27.17 FPKM
- RNASEH2A expression: 63.93 FPKM
- RRM1 expression: 40.40 FPKM
- RRM2 expression: 98.16 FPKM
- RUBCNL expression: 1.40 FPKM
- SDK2 expression: 1.00 FPKM
- SFXN2 expression: 31.80 FPKM
- SHCBP1 expression: 7.21 FPKM
- SKA3 expression: 14.05 FPKM
- SLC6A14 expression: 33.54 FPKM
- SMC2 expression: 14.75 FPKM
- SPC24 expression: 17.07 FPKM
- SPC25 expression: 16.49 FPKM
- STC2 expression: 134.11 FPKM
- TACC3 expression: 40.66 FPKM
- TCF19 expression: 21.19 FPKM
- TCOF1 expression: 21.81 FPKM
- TGM2 expression: 1.78 FPKM
- TICRR expression: 10.96 FPKM
- TK1 expression: 126.85 FPKM
- TMEM26 expression: 4.29 FPKM
- TMEM164 expression: 18.93 FPKM
- TONSL expression: 21.56 FPKM
- TOP2A expression: 69.34 FPKM
- TP73 expression: 3.93 FPKM
- TRIP13 expression: 21.48 FPKM
- TUBA1B expression: 1112.26 FPKM
- TUBB expression: 568.06 FPKM
- TYMS expression: 74.96 FPKM
- UBE2C expression: 67.26 FPKM
- UBE2T expression: 108.61 FPKM
- UHRF1 expression: 26.62 FPKM
- UNG expression: 64.43 FPKM
- WDHD1 expression: 10.21 FPKM
- WDR62 expression: 15.52 FPKM
- WDR76 expression: 5.46 FPKM
- XRCC2 expression: 7.64 FPKM
- XRCC3 expression: 19.64 FPKM
- ZGRF1 expression: 3.51 FPKM
- ZNF367 expression: 15.85 FPKM
